# Tests used:
# [1] = system: skin tumor formation induced by DMBA and TPA; assay: Two-stage mouse skin carcinogenesis model (DMBA/TPA); format: in vivo, ICR mice
# Description: The chemoprotective effect of xanthorrhizol and the methanolic extract of Curcuma xanthorrhiza Roxb. against tumor formation was investigated in multistage mouse carcinogenesis induced by tumor initiator (DMBA) and tumor promoter (TPA).
# To evaluate the inhibitory effect of xanthorrhizol and the methanolic extract of Curcuma xanthoffhiza Roxb. against tumor formation, 30 mice (6 weeks age, female) per an experimental group was used. The dorsal region of ICR mice was shaved with an electric clipper. After a topical application of 0.2 μmol DMBA in 0.2 ml acetone, mice were treated topically with xanthorrhizol or the methanolic extract of Curcuma xanthorrhiza 30 min prior to each topical application of 10 nmol TPA in 0.2 ml acetone which was continued three times weekly for 19 weeks. The negative control was treated with only 0.2 ml acetone. Tumors were counted and recorded biweekly. The results were expressed as the average number of tumors per mouse (tumor multiplicity) and the percentage of tumor-bearing mice (tumor incidence) and are shown at FIG. 3 and FIG. 4. […] FIG. 4 is a photograph representing the inhibitory effect of xanthorrhizol against tumor formation at 19 weeks.
# HL-60 cells = assay: DNA fragmentation in HL-60 cells (agarose gel electrophoresis); format: cell-based, Human; conditions: 80 μM, 24 hr
# Procedure: HL-60 cells were cultured in 10% FBS-RPMI 1640 medium of 100 mm Petri dish for 2 days. The cells were treated with 0,10, 40, 80 μM of xanthorrhizol to investigate the effect of xanthorrhizol on DNA fragmentation, a biochemical marker of apoptosis. After 24 hr, the cells were collected, incubated with 500 μl of lysis buffer (1 % Triton-X 100, 50 mM Tris-HCl pH 7.4, 20 mM EDTA) for 1 hr on ice, and centrifuged. To the supernatant was added 100 μl of 1% SDS, 10 μl f TE/RNase(10 mg/ml), 50 µl of proteinase K (1 mg/ml) and the mixture was incubated at 37° C. at least for 4 hr. DNA was extracted with phenol-chloroform-isoamylalcohol (25:24:1, v/v) and precipitated at −70° C. for 1 hr after addition of 2.5 volumes of cold ethanol. DNA fragments were resolved by 1.5% agarose gel electrophoresis and visualized by staining with ethidium bromide.
# quinone reductase (QR) = assay: Induction of quinone reductase activity in Hepa 1c1c7 cells; format: cell-based, rat; conditions: 48 hours, compared with the control
# Procedure: Hepa 1c1c7 cell (2.5×10^4/ml), a liver cancer cell of […], was seeded into 96 well plate and was cultured in 10% FBS-αL-MEM (Gibco BRL) at 37° C. for 24 hours in 5% CO2 of humidified air. 190 μl of fresh media and 10 μl of xanthorrhizol dissolved in 10% of DMSO was added to above culture media and it was cultured under 5% CO2 at 37° C. for 48 hours. The culture media were discarded, and after washing with PBS (phosphate buffered saline), 50 μl of reaction solution containing 0.8% digitonin and 2 mM EDTA was added to each well, and it was cultured for 10 minutes to destroy the cell. […] Then, 50 μl of 5 mM potassium phosphate (pH 7.4) solution containing 0.3 mM of dicoumarol was added to terminate the reaction and the absorbance at 595 nm was measured spectrophotometrically.
# To assess the effect of xanthorrhizol on cell growth, protein was measured in the 2nd plate set cultured under same condition above. […] And 200 μl of 0.5% SDS was added to cell and mixed, then the absorbance at 595 nm was measured spectophotometrically.
# To estimate the experimental result, firstly, QR specific activity of each group treated with xanthorrhizol and the control group was calculated by following equation 1. […] QR specific activity=(Absorbance change of MTT per min/Absorbance change of crystal violet)×3247 nmol/mg [Equation 1] […]
# COX-2 = assay: Inhibition of COX-2 expression induced by TPA in mouse skin (western blotting); format: in vivo, ICR mice; conditions: topical pretreatment 30 min before TPA 10 nmol; skin taken 4 hr later
# Procedure: It is known that the expression of COX-2 increases in mouse skin treated with TPA. Therefore, the effect of xanthorrhizol on COX-2 expression induced by TPA was measured as follows on the basis of this fact.
# Female ICR mice of about 5 weeks of age were purchased from the Daehan Experimental Animal Center (Seoul, Korea). Mice were kept on a 12 h light/dark cycle.
# The dorsal region of mice was shaved with an electric clipper. 2 days later, xanthorrhizol dissolved in 0.2 ml acetone was topically applied on mouse skin followed by topical application of TPA (10 nmol) dissolved in 0.2 ml acetone after 30 min. Mice were sacrificed by cervical dislocation 4 hr later. The skin was excised and the fat was removed. Fat-free skin was immediately placed in liquid nitrogen and pulverized in mortar.
# Pulverized mouse skin was lysed in 400 μl of lysis buffer [150 mM NaCl, 0.5% Triton X-100, 50 mM tris-HCl, pH 7.4, 20 mM EGTA, 1 mM DTT, 1 mM Na3VO4, protease inhibitor cocktail tablet] for 30 min on ice. Lysates were centrifuged and total protein in supernatant was quantified by Bio-Rad protein assay. Aliquots of supernatant containing 30 μg protein were boiled in SDS sample loading buffer for 5 min before electrophoresis on a 12% SDS-polyacrylamide gel. […]
structure (smiles),measurement,setting,value
CC(C)=CCC[C@@H](C)c1ccc(C)c(O)c1 [xanthorrhizol],average number of skin tumors per mouse (tumor multiplicity),"[1]; 6 μmol topical, three times per week for 19 weeks, DMBA/TPA control 15.5",4.0 skin tumors per mouse
same,percentage of tumor-bearing mice (tumor incidence),"[1]; 6 μmol topical, three times per week for 19 weeks, all DMBA/TPA control mice had tumors",57%
same,tumor formation,"[1]; topical application 30 min prior to each TPA, three times weekly for 19 weeks",inhibits tumor formation dose-dependently
same,DNA fragmentation,HL-60 cells,induced
same,QR induction ratio (treated/control),quinone reductase (QR); 0.4 μM,about 125%
same,QR induction ratio (treated/control),quinone reductase (QR); 50 μM,~130%
same,expression of COX-2 induced by TPA,COX-2,decreased by pretreatment with xanthorrhizol in a dose-dependent manner

# From patent US20050261162A1, “Pharmaceutical composition for preventing and treating cancer and treating an inflammation” (priority 2001, published 2005)
